Data: ChEMBL document CHEMBL5665443, “Enzyme Inhibitor Single Concentration assay results for EUbOPEN Chemogenomics Library” (2024)

Legend:
[1] = target: Endonuclease 8-like 1 (Homo sapiens) (UniProt Q96FI4); conditions: Hit No;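 further: fluorescence at 594 nm from quenched duplex DNA oligonucleotides released by NEIL1 cleavage and strand separation, reported as reduction of this enzyme activity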
Description: Inhibition of NEIL1 by quantifying inhibition of NEIL1-mediated cleavage and dissociation of quenched duplex DNA oligonucleotides, measured as fluorescence at 594 nm.

[2] = target: T1, Endonuclease III-like protein 1 (Homo sapiens) (UniProt P78549); conditions: Hit No;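 further: enzyme assay tracking NTHL1 cutting and release of a quenched double-stranded DNA oligo substrate, read as fluorescence at 594 nm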
T1 sequence (whole entry): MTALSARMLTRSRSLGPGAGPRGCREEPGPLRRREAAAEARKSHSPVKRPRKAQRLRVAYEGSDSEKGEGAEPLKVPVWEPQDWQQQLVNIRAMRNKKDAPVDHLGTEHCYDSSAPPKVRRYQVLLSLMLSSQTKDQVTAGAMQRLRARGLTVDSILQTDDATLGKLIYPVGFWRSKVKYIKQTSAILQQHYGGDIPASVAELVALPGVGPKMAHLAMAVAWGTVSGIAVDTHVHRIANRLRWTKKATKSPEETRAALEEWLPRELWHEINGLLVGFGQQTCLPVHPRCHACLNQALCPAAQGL
Description: Inhibition of NTHL1 by quantifying inhibition of NTHL1-mediated cleavage and dissociation of quenched duplex DNA oligonucleotides, measured as fluorescence at 594 nm.

[3] = target: N-glycosylase/DNA lyase (Homo sapiens) (UniProt O15527);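 further: OGG1 cleavage of a quenched duplex DNA oligonucleotide, coupled to APE1 for strand incision, read as fluorescence at 594 nm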
Description: Inhibition of OGG1 by quantifying inhibition of OGG1-mediated cleavage and dissociation of quenched duplex DNA oligonucleotides, measured as fluorescence at 594 nm. To generate a functional strand incision and increase turn-over this assay is coupled to APE1.

[4] = target: G/T mismatch-specific thymine DNA glycosylase (Homo sapiens) (UniProt Q13569); conditions: Hit No;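 further: human TDG cleavage of quenched duplex DNA oligonucleotides coupled to APE1, strand release read as fluorescence at 594 nm, inhibition of TDG activity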
Description: Inhibition of TDG by quantifying inhibition of TDG-mediated cleavage and dissociation of quenched duplex DNA oligonucleotides, measured as fluorescence at 594 nm. To generate a functional strand incision and increase turn-over this assay is coupled to APE1.

[5] = target: Uracil-DNA glycosylase (Homo sapiens) (UniProt P13051); conditions: Hit No;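 further: UNG excision on a quenched double-stranded DNA oligo probe, with APE1 added for strand incision and turnover, read as fluorescence at 594 nm as strands separate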
Description: Inhibition of UNG by quantifying inhibition of UNG-mediated cleavage and dissociation of quenched duplex DNA oligonucleotides, measured as fluorescence at 594 nm. To generate a functional strand incision and increase turn-over this assay is coupled to APE1.

[6] = target: T2, Endonuclease 8-like 2 (Homo sapiens) (UniProt Q969S2);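 further: fluorescence at 594 nm reports NEIL2 cutting and release of a quenched double-stranded DNA oligo substrate, reduced signal read as inhibition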
T2 sequence (whole entry): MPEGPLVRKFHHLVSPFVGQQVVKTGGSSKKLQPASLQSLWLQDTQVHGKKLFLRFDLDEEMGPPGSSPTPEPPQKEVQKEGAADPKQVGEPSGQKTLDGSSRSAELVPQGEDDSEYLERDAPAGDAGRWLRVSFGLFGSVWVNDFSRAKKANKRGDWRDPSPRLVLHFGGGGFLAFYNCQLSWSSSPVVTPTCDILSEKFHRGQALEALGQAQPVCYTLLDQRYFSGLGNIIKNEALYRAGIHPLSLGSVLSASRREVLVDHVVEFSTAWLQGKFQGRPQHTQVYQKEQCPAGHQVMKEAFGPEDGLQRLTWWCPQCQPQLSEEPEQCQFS
Description: Inhibition of NEIL2 by quantifying inhibition of NEIL2-mediated cleavage and dissociation of quenched duplex DNA oligonucleotides, measured as fluorescence at 594 nm.

[7] = target: T3, Adenine DNA glycosylase (Homo sapiens) (UniProt Q9UIF7); conditions: Hit No;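 further: human MUTYH activity read as 594 nm fluorescence from cleavage and release of a quenched DNA duplex, coupled with APE1 for strand incision, lower signal meaning inhibition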
T3 sequence (whole entry): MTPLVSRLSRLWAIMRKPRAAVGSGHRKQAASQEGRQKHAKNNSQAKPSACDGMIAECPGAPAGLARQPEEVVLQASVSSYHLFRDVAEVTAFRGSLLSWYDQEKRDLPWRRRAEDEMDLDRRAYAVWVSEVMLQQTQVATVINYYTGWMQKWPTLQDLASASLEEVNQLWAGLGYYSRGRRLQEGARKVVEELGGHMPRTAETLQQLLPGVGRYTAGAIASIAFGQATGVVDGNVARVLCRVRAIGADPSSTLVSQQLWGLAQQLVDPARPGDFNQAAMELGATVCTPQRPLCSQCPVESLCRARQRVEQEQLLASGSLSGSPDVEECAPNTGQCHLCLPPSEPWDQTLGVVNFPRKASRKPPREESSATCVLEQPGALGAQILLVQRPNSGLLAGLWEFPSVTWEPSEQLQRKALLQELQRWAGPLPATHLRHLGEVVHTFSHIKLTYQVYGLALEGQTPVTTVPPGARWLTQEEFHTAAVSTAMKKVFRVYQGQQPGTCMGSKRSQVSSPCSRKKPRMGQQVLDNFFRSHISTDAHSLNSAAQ
Description: Inhibition of MUTYH by quantifying inhibition of MUTYH-mediated cleavage and dissociation of quenched duplex DNA oligonucleotides, measured as fluorescence at 594 nm. To generate a functional strand incision and increase turn-over this assay is coupled to APE1.

[8] = target: T4, Single-strand selective monofunctional uracil DNA glycosylase (Homo sapiens) (UniProt Q53HV7); conditions: Hit No;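 further: enzymatic SMUG1 assay coupled with APE1, reading fluorescence at 594 nm released when a quenched double-stranded DNA oligonucleotide substrate is cleaved and separated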
T4 sequence (whole entry): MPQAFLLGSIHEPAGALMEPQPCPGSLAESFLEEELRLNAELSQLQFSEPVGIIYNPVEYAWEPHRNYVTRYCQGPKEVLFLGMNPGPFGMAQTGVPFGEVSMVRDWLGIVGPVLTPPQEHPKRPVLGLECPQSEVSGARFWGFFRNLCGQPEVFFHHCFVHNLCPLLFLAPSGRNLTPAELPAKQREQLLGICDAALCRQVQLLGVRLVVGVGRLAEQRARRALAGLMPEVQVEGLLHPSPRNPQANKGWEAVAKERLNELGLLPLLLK
Description: Inhibition of SMUG1 by quantifying inhibition of SMUG1-mediated cleavage and dissociation of quenched duplex DNA oligonucleotides, measured as fluorescence at 594 nm. To generate a functional strand incision and increase turn-over this assay is coupled to APE1.

[9] = target: Methyl-CpG-binding domain protein 4 (Homo sapiens) (UniProt O95243); conditions: Compound Concentration 10.0 uM, Hit No;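 further: MBD4 activity read as fluorescence at 594 nm from cleavage and release of a quenched duplex DNA oligonucleotide, with APE1 coupled to incise the strand and raise turnover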
Description: Inhibition of MBD4 by quantifying inhibition of MBD4-mediated cleavage and dissociation of quenched duplex DNA oligonucleotides, measured as fluorescence at 594 nm. To generate a functional strand incision and increase turn-over this assay is coupled to APE1.

[10] = Compound Concentration 10.0 uM, Hit No
[11] = Compound Concentration 1.0 uM, Hit No
[12] = Compound Concentration 10.0 uM, Hit Yes

Sequence of Uracil-DNA glycosylase (Homo sapiens) (P13051 whole entry): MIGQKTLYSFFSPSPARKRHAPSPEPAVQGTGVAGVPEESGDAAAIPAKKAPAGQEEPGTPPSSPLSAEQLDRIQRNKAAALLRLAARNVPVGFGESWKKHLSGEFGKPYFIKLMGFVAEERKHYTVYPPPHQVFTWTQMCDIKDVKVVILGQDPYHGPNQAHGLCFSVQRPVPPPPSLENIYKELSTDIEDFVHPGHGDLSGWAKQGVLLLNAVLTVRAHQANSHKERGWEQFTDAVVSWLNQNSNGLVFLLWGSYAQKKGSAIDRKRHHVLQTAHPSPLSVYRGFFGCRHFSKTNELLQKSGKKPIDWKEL
Sequence of Methyl-CpG-binding domain protein 4 (Homo sapiens) (O95243 whole entry, the tested form may be a part): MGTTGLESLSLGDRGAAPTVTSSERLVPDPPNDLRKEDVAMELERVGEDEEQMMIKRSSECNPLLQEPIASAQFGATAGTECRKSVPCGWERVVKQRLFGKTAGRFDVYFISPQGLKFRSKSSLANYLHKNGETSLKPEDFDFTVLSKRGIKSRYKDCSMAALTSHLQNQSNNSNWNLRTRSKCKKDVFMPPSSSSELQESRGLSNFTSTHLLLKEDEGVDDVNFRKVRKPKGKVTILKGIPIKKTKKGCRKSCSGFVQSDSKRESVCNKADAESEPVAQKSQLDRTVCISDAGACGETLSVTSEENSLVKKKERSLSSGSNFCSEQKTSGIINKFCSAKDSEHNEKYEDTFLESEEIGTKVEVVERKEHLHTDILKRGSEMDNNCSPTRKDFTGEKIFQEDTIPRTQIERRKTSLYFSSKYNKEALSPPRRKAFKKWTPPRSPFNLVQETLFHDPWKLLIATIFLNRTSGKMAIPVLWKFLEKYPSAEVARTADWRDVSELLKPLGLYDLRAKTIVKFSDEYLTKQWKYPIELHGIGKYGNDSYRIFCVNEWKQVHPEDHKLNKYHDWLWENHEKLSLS
Sequence of Endonuclease 8-like 1 (Homo sapiens) (Q96FI4 whole entry): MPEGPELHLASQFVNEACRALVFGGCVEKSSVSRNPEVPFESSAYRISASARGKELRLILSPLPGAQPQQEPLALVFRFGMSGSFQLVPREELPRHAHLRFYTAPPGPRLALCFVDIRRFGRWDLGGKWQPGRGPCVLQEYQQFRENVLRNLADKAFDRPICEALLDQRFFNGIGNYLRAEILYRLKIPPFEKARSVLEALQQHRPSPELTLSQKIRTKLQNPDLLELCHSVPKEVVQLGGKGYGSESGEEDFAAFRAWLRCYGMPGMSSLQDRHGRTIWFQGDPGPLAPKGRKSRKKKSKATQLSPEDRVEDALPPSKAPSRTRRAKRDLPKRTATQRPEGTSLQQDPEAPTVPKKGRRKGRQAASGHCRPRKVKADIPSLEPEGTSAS
Sequence of G/T mismatch-specific thymine DNA glycosylase (Homo sapiens) (Q13569 whole entry): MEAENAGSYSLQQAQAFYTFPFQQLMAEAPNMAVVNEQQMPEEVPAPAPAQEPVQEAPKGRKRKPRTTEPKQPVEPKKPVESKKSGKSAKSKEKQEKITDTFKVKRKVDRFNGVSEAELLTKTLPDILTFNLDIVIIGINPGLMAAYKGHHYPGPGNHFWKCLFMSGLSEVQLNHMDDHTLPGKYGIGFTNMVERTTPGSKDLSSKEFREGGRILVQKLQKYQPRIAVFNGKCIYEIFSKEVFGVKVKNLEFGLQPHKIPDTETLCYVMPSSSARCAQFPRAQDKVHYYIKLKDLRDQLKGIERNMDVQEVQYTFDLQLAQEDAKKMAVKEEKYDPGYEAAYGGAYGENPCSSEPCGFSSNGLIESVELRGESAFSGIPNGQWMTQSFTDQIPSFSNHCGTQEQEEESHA
Sequence of N-glycosylase/DNA lyase (Homo sapiens) (O15527 whole entry): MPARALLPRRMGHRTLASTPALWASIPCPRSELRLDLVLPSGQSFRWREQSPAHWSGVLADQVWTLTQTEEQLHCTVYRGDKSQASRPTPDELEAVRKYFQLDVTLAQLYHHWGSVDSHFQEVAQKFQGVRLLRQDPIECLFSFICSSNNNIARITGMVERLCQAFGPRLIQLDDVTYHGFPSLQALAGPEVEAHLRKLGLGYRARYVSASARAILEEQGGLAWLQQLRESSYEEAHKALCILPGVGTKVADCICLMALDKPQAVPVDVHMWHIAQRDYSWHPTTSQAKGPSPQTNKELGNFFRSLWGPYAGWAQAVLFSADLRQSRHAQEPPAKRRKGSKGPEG

Row | Compound | inhibition ([1]; Compound Concentration 10.0 uM) [%] | inhibition ([2]; Compound Concentration 10.0 uM) [%] | inhibition [3, 10] [%] | inhibition ([4]; Compound Concentration 10.0 uM) [%] | inhibition ([5]; Compound Concentration 10.0 uM) [%] | inhibition [6, 10] [%] | inhibition ([7]; Compound Concentration 10.0 uM) [%] | inhibition ([8]; Compound Concentration 10.0 uM) [%] | inhibition [9] [%] | inhibition ([1]; Compound Concentration 1.0 uM) [%] | inhibition ([2]; Compound Concentration 1.0 uM) [%] | inhibition ([4]; Compound Concentration 1.0 uM) [%] | inhibition ([5]; Compound Concentration 1.0 uM) [%] | inhibition [6, 11] [%] | inhibition ([7]; Compound Concentration 1.0 uM) [%] | inhibition ([8]; Compound Concentration 1.0 uM) [%] | inhibition [3, 12] [%] | inhibition [6, 12] [%] | inhibition [3, 11] [%]
1 | Cc1nc(C#Cc2ccnc(Cl)c2)c(C)n1-c1ccc(OC(F)(F)F)cc1 | -9.4 | 7.05 | -0.162 | 20.9 | -8.09 | 5.26 | 14 | 5 |  |  |  |  |  |  |  |  |  |  | 
2 | COc1ccc(CN(CCN(C)C)c2ccccn2)cc1 | 2.61 | 21.7 | -6.42 | 2.93 |  | -3.23 | 4.88 |  | -9.78 |  |  |  |  |  |  |  |  |  | 
3 | CC(C)(C)c1ccc2c(c1)CC[C@H]2NC(=O)Nc1cccc2[nH]ncc12 | 7.86 | 3.04 | -2.36 | -8.31 | -4.28 | -4.17 | -7.76 | 11.7 |  |  |  |  |  |  |  |  |  |  | 
4 | Cn1cc(-c2[nH]c3cc(NC(=O)[C@H](N)C4CCCCC4)cc4c3c2C=NNC4=O)cn1 |  |  |  |  |  |  |  |  |  | -1.18 | -0.61 | 43.2 | 0.598 | -5.15 | -0.0556 | 19.2 |  |  | 
5 | CN1CCN(c2cc(-c3ccccc3)nc(N)n2)CC1 | -2.28 | 9.99 |  | 1.13 | -9.1 | 7 | -4.71 |  | -3.57 |  |  |  |  |  |  |  |  |  | 
6 | CCCCC(=O)N(Cc1ccc(-c2ccccc2-c2nnn[nH]2)cc1)[C@H](C(=O)O)C(C)C | 0.537 | 1.92 | -4.35 | 0.584 |  | 1.76 | 34.3 |  | -9.61 |  |  |  |  |  |  |  |  |  | 
7 | N#Cc1c(N)nc(SCc2csc(-c3ccc(Cl)cc3)n2)c(C#N)c1-c1ccc(OCCO)cc1 |  | 4.7 |  | 6.03 | -1.02 |  | 7.45 |  | -6.16 |  |  |  |  |  |  |  | 55.1 |  | 
8 | CC(C)NCC(O)COc1cccc2ccccc12 (stereo unspecified) | -0.797 | 13.7 |  | 5.22 | -6.12 |  | 3.6 | 3.41 |  |  |  |  |  |  |  |  |  | 35 | 
9 | N[C@@H](Cc1cc(I)c(Oc2ccc(O)c(I)c2)c(I)c1)C(=O)O | -7.26 | -3.92 | 4.51 | 102 | 5.16 |  | 10.3 |  | 68.9 |  |  |  |  |  |  |  |  |  | 
10 | Cc1cccc([C@H](C)c2c[nH]cn2)c1C | -5.1 | -4.67 | -7.75 | 18.4 |  | 7.25 | 5.65 | -5.51 |  |  |  |  |  |  |  |  |  |  | 
11 | O=C(O)c1cc(-c2ccc(C3CCNCC3)cc2)c2ccc(-c3ccc(C(F)(F)F)cc3)cc2c1 | -1.45 | 2.15 | -4.86 | 20.1 | 0.968 | 1.86 | 10.9 | -1.19 |  |  |  |  |  |  |  |  |  |  | 
12 | CNc1nc(Nc2cnn([C@H]3CCN(C4COC4)C[C@@H]3F)c2Cl)ncc1C(F)(F)F |  |  |  |  |  |  |  |  |  | -2.24 | -6.19 | 39.4 | 2.4 |  | -1.03 | 15 |  |  | -2.93
13 | CS(=O)(=O)NC[C@H]1CC[C@H](Nc2nc3c(s2)CCSc2ccccc2-3)CC1 | -5.25 | 34.9 | -8.83 | 2.85 | -8.36 | 8.25 | -5.74 | -4.83 |  |  |  |  |  |  |  |  |  |  | 
14 | CC#CC(=O)N1CCC[C@H]1c1nc(-c2ccc(C(=O)Nc3ccccn3)cc2)c2c(N)nccn12 |  | -7.58 | 1.98 | 55.9 | 4.65 |  | 0.794 |  | -0.914 |  |  |  |  |  |  |  |  |  | 
15 | Cn1cnc2c(F)c(Nc3ccc(Br)cc3Cl)c(C(=O)NOCCO)cc21 | 11.5 | -8.28 |  | 39.7 | -1.17 |  | -2.18 | 16.2 |  |  |  |  |  |  |  |  |  |  | 
16 | CSCC[C@H](NC(=O)[C@H](Cc1ccccc1)NC(=O)[C@H](Cc1c[nH]cn1)NC(=O)CNC(=O)[C@@H](NC(=O)[C@H](C)NC(=O)[C@H](Cc1c[nH]c2ccccc12)NC(=O)[C@H](CC(C)C)NC(=O)[C@H](CC(N)=O)NC(=O)CN)[C@@H](C)O)C(N)=O | 10.5 | 8.82 |  | -7.68 | -8.29 | -6.21 | 11.4 |  | -1.83 |  |  |  |  |  |  |  |  |  | 
17 | c1ccc(N2CCN(Cc3nc4ccccc4[nH]3)CC2)nc1 |  | 0.934 | -5.49 | 29.5 | -4.15 |  | 2.22 |  | 29.2 |  |  |  |  |  |  |  |  |  | 
18 | Clc1ccc(OC[C@H]2CCN2)cn1 | -0.584 | 5.52 | -5.75 |  | -3.96 | -6.72 | -6.13 |  | -2.21 |  |  |  |  |  |  |  |  |  | 
19 | N[C@@H]1c2cccnc2[C@H](OC(=O)N2CCC(n3c(=O)[nH]c4ncccc43)CC2)CC[C@H]1c1cccc(F)c1F | -2.58 | -6.14 | -5.76 | 6.23 |  | 0.515 | -2.28 | -4.73 |  |  |  |  |  |  |  |  |  |  | 
20 | OCCn1cc(-c2cnc3nnn(Cc4ccc5ncccc5c4)c3n2)cn1 | 2.52 | -9.68 | -5.86 | 49.5 | -1.44 | -5.15 | 0.369 | 18.6 |  |  |  |  |  |  |  |  |  |  | 
